Results: ChEMBL document CHEMBL5608235, “Tricyclic Benzo[1,3]oxazinyloxazolidinones as Potent Antibacterial Agents against Drug-Resistant Pathogens” (J Med Chem, 2024)
Values after ≈ are worked out from the molar mass of the structure shown. Active and inactive are the calls of the source. The calls are words filed in the database; no cut-off is given here.

Assays:
[1] = system: Cell membrane; test: Disruption of cell membrane in methicillin resistant Staphylococcus aureus ATCC 33592 assessed as cell lysis at MIC incubated for 6 hrs by Scanning electron microscopic analysis; type: cell membranes
[2] = system: Enterococcus faecalis; test: Antibacterial activity against Enterococcus faecalis ATCC29212 assessed as inhibition of bacterial growth incubated for 18 hrs by microdilution broth assay; type: functional
[3] = system: Staphylococcus aureus; test: Antibacterial activity against Staphylococcus aureus ATCC25923 assessed as inhibition of bacterial growth incubated for 18 hrs by microdilution broth assay; type: functional
[4] = system: Mycobacterium tuberculosis; test: Antibacterial activity against Mycobacterium tuberculosis H37Rv assessed as inhibition of bacterial growth incubated for 7 days by alamar blue assay; type: functional; settings: 168 h, time 7 day
[5] = system: Bacillus subtilis; test: Antibacterial activity against Bacillus subtilis ATCC6633 assessed as inhibition of bacterial growth incubated for 18 hrs by microdilution broth assay; type: functional
[6] = system: Staphylococcus epidermidis; test: Antibacterial activity against Staphylococcus epidermidis ATCC12228 assessed as inhibition of bacterial growth incubated for 18 hrs by microdilution broth assay; type: functional
[7] = Metabolic stability in ICR mouse liver microsomes assessed as compound remaining at 10 uM incubated for 60 mins in absence of NADPH by LC-MS/MS analysis; type: ADME, Microsome; settings: read-out: Stability
[8] = system: Staphylococcus aureus; test: Antibacterial activity against methicillin resistant Staphylococcus aureus clinical isolate 20-1 assessed as inhibition of bacterial growth incubated for 7 days by alamar blue assay; type: functional; settings: clinical isolate 20-1, 168 h, time 7 day
[9] = Metabolic stability in human liver microsomes assessed as compound remaining at 10 uM incubated for 60 mins in absence of NADPH by LC-MS/MS analysis; type: ADME, Microsome; settings: read-out: Stability
[10] = system: Enterococcus faecalis; test: Antibacterial activity against Linezolid resistant Enterococcus faecalis clinical isolate 20-1 assessed as inhibition of bacterial growth incubated for 7 days by alamar blue assay; type: functional; settings: clinical isolate 20-1, 168 h, time 7 day
[11] = system: Staphylococcus aureus; test: Antibacterial activity against Linezolid resistant Staphylococcus aureus clinical isolate 20-1 assessed as inhibition of bacterial growth incubated for 7 days by alamar blue assay; type: functional; settings: clinical isolate 20-1, 168 h, time 7 day
[12] = system: Staphylococcus aureus; test: Antibacterial activity against vancomycin intermediate Staphylococcus aureus ATCC700699 assessed as inhibition of bacterial growth incubated for 7 days by alamar blue assay; type: functional; settings: ATCC700699, 168 h, time 7 day
[13] = system: Staphylococcus epidermidis; test: Antibacterial activity against methicillin resistant Staphylococcus epidermidis clinical isolate 20-1 assessed as inhibition of bacterial growth incubated for 7 days by alamar blue assay; type: functional; settings: clinical isolate 20-1, 168 h, time 7 day
[14] = system: Staphylococcus aureus; test: Antibacterial activity against methicillin resistant Staphylococcus aureus clinical isolate 20-2 assessed as inhibition of bacterial growth incubated for 7 days by alamar blue assay; type: functional; settings: clinical isolate 20-2, 168 h, time 7 day
[15] = system: Enterococcus; test: Antibacterial activity against vancomycin resistant Enterococcus clinical isolate 20-1 assessed as inhibition of bacterial growth incubated for 7 days by alamar blue assay; type: functional; settings: clinical isolate 20-1, 168 h, time 7 day
[16] = Metabolic stability in human liver microsomes assessed as substrate remaining at 10 uM incubated for 60 mins in presence of NADPH by LC-MS/MS analysis; type: ADME, Microsome; settings: read-out: Stability
[17] = Metabolic stability in ICR mouse liver microsomes assessed as substrate remaining at 10 uM incubated for 60 mins in presence of NADPH by LC-MS/MS analysis; type: ADME, Microsome; settings: read-out: Stability
[18] = system: Staphylococcus epidermidis; test: Antibacterial activity against methicillin resistant Staphylococcus epidermidis clinical isolate 20-2 assessed as inhibition of bacterial growth incubated for 7 days by alamar blue assay; type: functional; settings: clinical isolate 20-2, 168 h, time 7 day
[19] = system: Enterococcus faecalis; test: Antibacterial activity against Linezolid resistant Enterococcus faecalis clinical isolate 20-2 assessed as inhibition of bacterial growth incubated for 7 days by alamar blue assay; type: functional; settings: clinical isolate 20-2, 168 h, time 7 day
[20] = system: Staphylococcus aureus; test: Antibacterial activity against Linezolid resistant Staphylococcus aureus clinical isolate 20-2 assessed as inhibition of bacterial growth incubated for 7 days by alamar blue assay; type: functional; settings: clinical isolate 20-2, 168 h, time 7 day
[21] = Cytotoxicity against African green monkey Vero cells incubated for 48 hrs by MTT assay; type: toxicity, cell-based, Chlorocebus sabaeus

SMILES	MIC [2] [µg/mL]	MIC [3] [µg/mL]	MIC [4] [µg/mL]	MIC [5] [µg/mL]	MIC [6] [µg/mL]	IC50 at 48 h [21] [µg/mL]	further results
CCCCCCCCCC(=O)N[C@@H](Cc1c[nH]c2ccccc12)C(=O)N[C@H](CC(N)=O)C(=O)N[C@@H](CC(=O)O)C(=O)N[C@@H]1C(=O)NCC(=O)N[C@@H](CCCN)C(=O)N[C@@H](CC(=O)O)C(=O)N[C@H](C)C(=O)N[C@@H](CC(=O)O)C(=O)NCC(=O)N[C@H](CO)C(=O)N[C@@H]([C@H](C)CC(=O)O)C(=O)N[C@@H](CC(=O)c2ccccc2N)C(=O)O[C@@H]1C							Activity [1]: Active
CC(=O)NC[C@H]1OC(=O)N2Cc3c(cc(F)c(-c4ccc(-c5nnn(C)n5)nc4)c3F)O[C@H]12	> 64	> 64	> 32	> 64	> 64		
COC(=O)NC[C@@H]1OC(=O)N2Cc3cc(-c4ccc(-c5nnn(C)n5)nc4)c(F)cc3O[C@@H]12	0.5 (≈ 1.1 µM)	4 (≈ 8.78 µM)	0.49 (≈ 1.08 µM)	0.125 (≈ 0.274 µM)	0.125 (≈ 0.274 µM)	37 (≈ 81.2 µM)	remaining at 1 h, 10 µM [7]: 104%; MIC [8]: 0.25 µg/mL (≈ 0.549 µM); remaining at 1 h, 10 µM [9]: 120%; MIC [10]: 1 µg/mL (≈ 2.2 µM); MIC [11]: 8 µg/mL (≈ 17.6 µM); MIC [12]: 0.5 µg/mL (≈ 1.1 µM); MIC [13]: 0.125 µg/mL (≈ 0.274 µM); MIC [14]: 0.25 µg/mL (≈ 0.549 µM); MIC [15]: 0.5 µg/mL (≈ 1.1 µM); remaining at 1 h, 10 µM [16]: 110%; remaining at 1 h, 10 µM [17]: 102%; MIC [18]: 0.125 µg/mL (≈ 0.274 µM); MIC [19]: 1 µg/mL (≈ 2.2 µM); MIC [20]: 8 µg/mL (≈ 17.6 µM)
N#Cc1ccc(-c2c(F)cc3c(c2F)CN2C(=O)O[C@@H](CN)[C@@H]2O3)cn1	> 64	> 64	0.5 (≈ 1.4 µM)	> 64	64 (≈ 179 µM)	59 (≈ 165 µM)	
CC(=O)NC[C@@H]1OC(=O)N2Cc3c(cc(F)c(-c4ccc(-c5nnn(C)n5)nc4)c3F)O[C@@H]12	2 (≈ 4.37 µM)	1 (≈ 2.19 µM)	0.74 (≈ 1.62 µM)	0.125 (≈ 0.273 µM)	2 (≈ 4.37 µM)	> 64	MIC [8]: 1 µg/mL (≈ 2.19 µM); MIC [10]: 2 µg/mL (≈ 4.37 µM); MIC [11]: 8 µg/mL (≈ 17.5 µM); MIC [12]: 1 µg/mL (≈ 2.19 µM); MIC [13]: 0.5 µg/mL (≈ 1.09 µM); MIC [14]: 1 µg/mL (≈ 2.19 µM); MIC [15]: 1 µg/mL (≈ 2.19 µM); MIC [18]: 0.5 µg/mL (≈ 1.09 µM); MIC [19]: 2 µg/mL (≈ 4.37 µM); MIC [20]: 8 µg/mL (≈ 17.5 µM)
CC(=O)NC[C@H]1OC(=O)N2Cc3c(cc(F)c(-c4ccc(C#N)nc4)c3F)O[C@H]12	> 64	> 64	> 32	> 64	> 64		
COc1ccc(-c2c(F)cc3c(c2F)CN2C(=O)O[C@@H](CN)[C@@H]2O3)cn1	> 64	64 (≈ 176 µM)	1.82 (≈ 5.01 µM)	64 (≈ 176 µM)	64 (≈ 176 µM)		
COc1cc(-c2cc3c(cc2F)O[C@H]2[C@H](CNC(C)=O)OC(=O)N2C3)ccn1	1 (≈ 2.58 µM)	4 (≈ 10.3 µM)	6.51 (≈ 16.8 µM)	0.5 (≈ 1.29 µM)	2 (≈ 5.16 µM)	36 (≈ 92.9 µM)	
Cn1nnc(-c2ccc(-c3c(F)cc4c(c3F)CN3C(=O)O[C@@H](CN)[C@@H]3O4)cn2)n1	> 64	> 64	0.74 (≈ 1.78 µM)	64 (≈ 154 µM)	64 (≈ 154 µM)	16 (≈ 38.5 µM)	
CC(=O)NC[C@@H]1OC(=O)N2Cc3c(cc(F)c(-c4ccc(C#N)nc4)c3F)O[C@@H]12	0.5 (≈ 1.25 µM)	1 (≈ 2.5 µM)	0.97 (≈ 2.42 µM)	0.032 (≈ 0.0799 µM)	0.125 (≈ 0.312 µM)	> 64	MIC [8]: 1 µg/mL (≈ 2.5 µM); MIC [10]: 2 µg/mL (≈ 5 µM); MIC [11]: 8 µg/mL (≈ 20 µM); MIC [12]: 1 µg/mL (≈ 2.5 µM); MIC [13]: 0.5 µg/mL (≈ 1.25 µM); MIC [14]: 1 µg/mL (≈ 2.5 µM); MIC [15]: 1 µg/mL (≈ 2.5 µM); MIC [18]: 0.5 µg/mL (≈ 1.25 µM); MIC [19]: 2 µg/mL (≈ 5 µM); MIC [20]: 8 µg/mL (≈ 20 µM)
CC(=O)NC[C@@H]1OC(=O)N2Cc3cc(-c4ccc(C(F)(F)F)nc4)c(F)cc3O[C@@H]12	1 (≈ 2.35 µM)	32 (≈ 75.2 µM)	6.7 (≈ 15.8 µM)	1 (≈ 2.35 µM)	0.5 (≈ 1.18 µM)		
CC(=O)NC[C@@H]1OC(=O)N2Cc3cc(-c4ccc(C(C)=O)cc4)c(F)cc3O[C@@H]12	1 (≈ 2.51 µM)	8 (≈ 20.1 µM)	0.74 (≈ 1.86 µM)	0.5 (≈ 1.26 µM)	2 (≈ 5.02 µM)	49 (≈ 123 µM)	
CC(=O)NC[C@@H]1OC(=O)N2Cc3cc(-c4ccc5c(c4)NC(=O)CO5)c(F)cc3O[C@@H]12	1 (≈ 2.34 µM)	32 (≈ 74.9 µM)	0.9 (≈ 2.11 µM)	16 (≈ 37.4 µM)	2 (≈ 4.68 µM)	40 (≈ 93.6 µM)	
